Here are results for 12 compounds from PubChem BioAssay (NCI).

Test systems include HCC-2998 colon; OVCAR-8 ovarian; SK-MEL-5 melanoma; HT29 colon; COLO 205 colon; MDA-MB-435; RXF 393 renal; IGROV1 ovarian; K-562 leukemia; SF-539 CNS.
Common to all, as to assay: inhibition of tumour cell growth, NCI panel, 48 h

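Following 48 hours of exposure in 96-well plates, responses at five concentrations were used to interpolate endpoints linearly. GI50 marks 50% less growth. Definition used: TGI = concentration required for complete inhibition of growth.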

Take `COc1ccc(CNCCN2C(=O)c3ccc4c5c(ccc(c35)C2=O)C(=O)N(CCNCc2ccc(OC)c(OC)c2OC)C4=O)c(OC)c1OC`: the GI50 in the experiment on HCC-2998 colon is 167 nM; with OVCAR-8 ovarian, 160 nM; in the experiment with SK-MEL-5 melanoma it was 480 nM; in the experiment with HT29 colon it was 164 nM; in the experiment with COLO 205 colon, 89.9 nM; in the experiment with MDA-MB-435, 250 nM. The GI50 in the experiment on RXF 393 renal is 279 nM. The TGI with HCC-2998 colon was 0.59 µM; with OVCAR-8 ovarian, 0.648 µM; in the experiment with SK-MEL-5 melanoma, 1.09 µM; in the experiment on HT29 colon, 0.589 µM; with COLO 205 colon, 0.168 µM; with MDA-MB-435 it was 0.801 µM. The compound also returned a TGI with RXF 393 renal of 1.42 µM.
For `O=[N+]([O-])c1cc(-c2ccc([As](=O)(O)O)cc2)ccc1[As](=O)(O)O`, the TGI in the experiment with OVCAR-8 ovarian, in the experiment on IGROV1 ovarian, in the experiment on SK-MEL-5 melanoma, in the experiment on K-562 leukemia, with HT29 colon and in the experiment with MDA-MB-435 was more than 100 µM each time. For the same compound, the TGI in the experiment with RXF 393 renal was more than 100 µM.
`COc1cc2ccnc3c2c(c1OC)N(C)C=C3`: the TGI with HCC-2998 colon is 33.8 µM; in the experiment with OVCAR-8 ovarian it was more than 100 µM; in the experiment on K-562 leukemia, 65.5 µM; in the experiment with COLO 205 colon, 96.3 µM; with MDA-MB-435, 80.4 µM; in the experiment on RXF 393 renal, 68.6 µM.
Consider `Clc1ccc(CCNCCNC2(c3cc4ccccc4s3)CCCCC2)cc1Cl`, for which the TGI with HCC-2998 colon came out at 2.82 µM; with OVCAR-8 ovarian, 3.54 µM; in the experiment on IGROV1 ovarian, 3.24 µM; with SK-MEL-5 melanoma it was 3.12 µM; with K-562 leukemia it was 4.52 µM; in the experiment on HT29 colon it was 3.59 µM. The values for the TGI in the experiment with COLO 205 colon, in the experiment with MDA-MB-435 and in the experiment on RXF 393 renal were 2.99 µM, 3.83 µM and 4 µM, respectively.
In the case of `COc1c(C(=O)CC2c3c(cc4oc(C)cc(=O)c4c3OC)OC(=N)C2c2nc3ccccc3[nH]2)c(O)c(OC)c2occc12` (configuration not stated), the TGI in the experiment on HCC-2998 colon, with OVCAR-8 ovarian, with IGROV1 ovarian, with SK-MEL-5 melanoma, in the experiment on K-562 leukemia and with HT29 colon was more than 100 µM in each case. The TGI with COLO 205 colon, in the experiment with MDA-MB-435 and with RXF 393 renal was more than 100 µM throughout.
For the compound `CCCC(CCC(=O)O)(CCC(=O)O)[N+](=O)[O-]`, the TGI in the experiment on OVCAR-8 ovarian, in the experiment with IGROV1 ovarian, in the experiment on SK-MEL-5 melanoma, with K-562 leukemia, in the experiment on HT29 colon and with SF-539 CNS was more than 100 µM throughout. For the same compound, the TGI with COLO 205 colon, with MDA-MB-435 and in the experiment on RXF 393 renal was more than 100 µM each time.
Take `Cc1ccc2c(=O)cc(-c3ccccc3)[nH]c2n1`: the TGI was 4.68 µM with HCC-2998 colon; 0.853 µM in the experiment with OVCAR-8 ovarian; more than 100 µM in the experiment on IGROV1 ovarian; 18.7 µM with SK-MEL-5 melanoma; 6.57 µM in the experiment with K-562 leukemia; 0.194 µM with HT29 colon. Moreover, the values for the TGI in the experiment on SF-539 CNS, in the experiment with MDA-MB-435 and in the experiment with RXF 393 renal were 2.79 µM, 0.0321 µM and 0.486 µM, respectively.
Turning to `Nc1nc(Cl)cc(OCC2(CO)CCCCC2)n1`, the TGI in the experiment on HCC-2998 colon was 82.1 µM; in the experiment with OVCAR-8 ovarian it was more than 100 µM; with IGROV1 ovarian, more than 100 µM; with SK-MEL-5 melanoma, more than 100 µM; with HT29 colon, more than 100 µM; in the experiment with SF-539 CNS, more than 100 µM. Moreover, the TGI in the experiment on MDA-MB-435 and in the experiment with RXF 393 renal was more than 100 µM throughout.
With `CCOC(=O)C1=C(C)NC(c2ccccc2)=C(C(=O)OCc2ccccc2)C1C#Cc1ccccc1` (configuration not stated), the TGI in the experiment on OVCAR-8 ovarian, in the experiment on IGROV1 ovarian, in the experiment with SK-MEL-5 melanoma, with K-562 leukemia, with SF-539 CNS and in the experiment with COLO 205 colon was more than 100 µM each time. Further, the TGI with MDA-MB-435 and in the experiment on RXF 393 renal was more than 100 µM each time.
With `Cc1[nH]c(-c2ccccc2)c(O)c1C(=O)OC1CC(C)CCC1C(C)C` (configuration not stated), the TGI in the experiment with OVCAR-8 ovarian is 29.9 µM; in the experiment on IGROV1 ovarian it was 29 µM; in the experiment with SK-MEL-5 melanoma, 30.2 µM; in the experiment on K-562 leukemia, more than 100 µM; in the experiment with HT29 colon it was 27.5 µM; with SF-539 CNS, 29.7 µM. The figures for the TGI in the experiment with COLO 205 colon, in the experiment with MDA-MB-435 and in the experiment with RXF 393 renal were 27.9 µM, 28 µM and 24.3 µM, respectively.
`CC(C)C(C=O)C(O)(C(F)(F)F)C(F)(F)F` (configuration not stated): the TGI in the experiment on HCC-2998 colon, in the experiment on OVCAR-8 ovarian, in the experiment with SK-MEL-5 melanoma, with K-562 leukemia, in the experiment on HT29 colon and in the experiment with SF-539 CNS was more than 100 µM each time. In addition, the TGI in the experiment on COLO 205 colon, in the experiment on MDA-MB-435 and with RXF 393 renal was more than 100 µM in each case.
On to `CCc1cc2c(cc1O)CC[C@@H]1[C@@H]2CC[C@]2(C)[C@@H](O)CC[C@@H]12`, for which the TGI was 24 µM in the experiment on HCC-2998 colon; 22.4 µM in the experiment with OVCAR-8 ovarian; 28.4 µM in the experiment with IGROV1 ovarian; 20.4 µM in the experiment on SK-MEL-5 melanoma; 14.5 µM in the experiment on K-562 leukemia; 29.3 µM in the experiment with HT29 colon. Also, the TGI in the experiment on SF-539 CNS came out at 9.5 µM; in the experiment with COLO 205 colon, 31.9 µM; in the experiment with MDA-MB-435, 4.99 µM. Also, in the experiment with SF-539 CNS, the GI50 was 3.27 µM.
